SMILES strings stand for the structures.

What is called mortality is the percentage killed. Low values mean a weak lethal effect, high ones a strong lethal effect.

In one data set the test system is Meloidogyne incognita. Put plainly: Meloidogyne incognita test (sand, salad seedlings, gall formation). The data set is classed as in vivo. The following applies: application rate 20 ppm, after 14 days, 100% = no galls, 0% = galls equal to untreated control. The protocol:
Meloidogyne Incognita—Test
Solvent: 125.0 parts by weight of acetone
To produce a suitable preparation of active compound, 1 part by weight of active compound is mixed with the stated amount of solvent, and the concentrate is diluted with water to the desired concentration.
Vessels are filled with sand, a solution of the active ingredient, a suspension containing eggs and larvae of the southern root-knot nematode (Meloidogyne incognita) and salad seeds. The salad seeds germinate and the seedlings grow. Galls develop in the roots.
After 14 days the nematicidal activity is determined on the basis of the percentage of gall formation. 100% means no galls were found and 0% means the number of galls found on the roots of the treated plants was equal to that in untreated control plants.
For `CS(=O)(=O)NC(=O)c1cc2c(Cl)cc(C(F)(F)F)cn2n1` [Example I-15], the “nematicidal activity on the basis of the percentage of gall formation” value is listed as 90%. Take `CCS(=O)(=O)NC(=O)c1cc2cc(C(F)(F)F)cc(Cl)n2n1` [Example I-32]: the “nematicidal activity on the basis of the percentage of gall formation” value was found to be 90%. As to `O=C(NS(=O)(=O)c1cc(C(F)(F)F)ccc1Cl)c1cc2cc(C(F)(F)F)ccn2n1` [Example I-33], the “nematicidal activity on the basis of the percentage of gall formation” value was 100%. With `CCOc1ccc(Cl)c(S(=O)(=O)NC(=O)c2cc3cc(C(F)(F)F)ccn3n2)c1` [Example I-34], the “nematicidal activity on the basis of the percentage of gall formation” value is on record as 100%. For the compound `CCCOc1ccc(Cl)c(S(=O)(=O)NC(=O)c2cc3cc(C(F)(F)F)ccn3n2)c1` [Example I-35], the “nematicidal activity on the basis of the percentage of gall formation” value was 100%. For `CCc1ccc(Cl)c(S(=O)(=O)NC(=O)c2cc3cc(C(F)(F)F)ccn3n2)c1` [Example I-36], the “nematicidal activity on the basis of the percentage of gall formation” value stood at 100%. As for `COc1ccc(Br)c(S(=O)(=O)NC(=O)c2cc3cc(C(F)(F)F)ccn3n2)c1` [Example I-37], the “nematicidal activity on the basis of the percentage of gall formation” value is reported as 100%. Same read-out and setting: under `COc1ccc(F)c(S(=O)(=O)NC(=O)c2cc3cc(C(F)(F)F)ccn3n2)c1` [Example I-38] stands 100%; under `CSc1cccc(Cl)c1S(=O)(=O)NC(=O)c1cc2cc(C(F)(F)F)ccn2n1` [Example I-39], 100%; under `CCSc1cccc(Cl)c1S(=O)(=O)NC(=O)c1cc2cc(C(F)(F)F)ccn2n1` [Example I-40], 100%. In the case of `CC(C)Sc1cccc(Cl)c1S(=O)(=O)NC(=O)c1cc2cc(C(F)(F)F)ccn2n1` [Example I-41], the “nematicidal activity on the basis of the percentage of gall formation” value was found to be 100%. On the same count and under the same terms, under `CC(C)Nc1cccc(F)c1S(=O)(=O)NC(=O)c1cc2cc(C(F)(F)F)ccn2n1` [Example I-42] stands 100%; under `O=C(NS(=O)(=O)c1c(F)cccc1Cl)c1cc2cc(C(F)(F)F)ccn2n1` [Example I-43], 100%; under `CCOc1ccc(Cl)c(S(=O)(=O)NC(=O)c2cc3cc(C(F)(F)F)cc(Cl)n3n2)c1` [Example I-44], 90%. As to `CCCOc1ccc(Cl)c(S(=O)(=O)NC(=O)c2cc3cc(C(F)(F)F)cc(Cl)n3n2)c1` [Example I-45], the “nematicidal activity on the basis of the percentage of gall formation” value came to 100%. Consider `O=C(NS(=O)(=O)c1ccccc1Cl)c1cc2cc(Cl)cc(Cl)n2n1` [Example I-46], for which the “nematicidal activity on the basis of the percentage of gall formation” value is recorded as 90%. The same measure, in the same setting: under `COc1ccc(Cl)c(S(=O)(=O)NC(=O)c2cc3cc(Cl)cc(Cl)n3n2)c1` [Example I-49] stands 90%. Regarding `O=C(NS(=O)(=O)c1cc(Cl)ccc1Cl)c1cc2ccc(C(F)(F)F)cn2n1` [Example I-51], the “nematicidal activity on the basis of the percentage of gall formation” value came to 90%.

In the case of `O=C(NS(=O)(=O)c1c(Cl)cccc1Cl)c1cc2ccc(C(F)(F)F)cn2n1` [Example I-52], the “nematicidal activity on the basis of the percentage of gall formation” value amounted to 90%. Regarding `CCOc1ccc(Cl)c(S(=O)(=O)NC(=O)c2cc3cc(Cl)cc(Cl)n3n2)c1` [Example I-57], the “nematicidal activity on the basis of the percentage of gall formation” value was determined as 100%. For `CCCOc1ccc(Cl)c(S(=O)(=O)NC(=O)c2cc3cc(Cl)cc(Cl)n3n2)c1` [Example I-58], the “nematicidal activity on the basis of the percentage of gall formation” value was found to be 100%. The same measure, in the same setting: under `CCc1ccc(Cl)c(S(=O)(=O)NC(=O)c2cc3cc(Cl)cc(Cl)n3n2)c1` [Example I-59] stands 100%. On to `CSc1ccc(Cl)c(S(=O)(=O)NC(=O)c2cc3cc(Cl)cc(Cl)n3n2)c1` [Example I-60], for which the “nematicidal activity on the basis of the percentage of gall formation” value is 100%. On the same count and under the same terms, under `CCc1ccc(Cl)c(S(=O)(=O)NC(=O)c2cc3cc(C(F)(F)F)cc(Cl)n3n2)c1` [Example I-62] stands 100%. For the compound `CCSc1cccc(Cl)c1S(=O)(=O)NC(=O)c1cc2cc(C(F)(F)F)cc(Cl)n2n1` [Example I-63], the “nematicidal activity on the basis of the percentage of gall formation” value is given as 100%. Take `CC(C)Sc1cccc(Cl)c1S(=O)(=O)NC(=O)c1cc2cc(C(F)(F)F)cc(Cl)n2n1` [Example I-64]: the “nematicidal activity on the basis of the percentage of gall formation” value is 100%.

Take `O=C(NS(=O)(=O)c1c(F)cccc1Cl)c1cc2cc(C(F)(F)F)cc(Cl)n2n1` [Example I-65]: the “nematicidal activity on the basis of the percentage of gall formation” value was 100%.

Turning to `CC(C)Nc1cccc(F)c1S(=O)(=O)NC(=O)c1cc2cc(Cl)cc(Cl)n2n1` [Example I-66], the “nematicidal activity on the basis of the percentage of gall formation” value is on record as 90%. `O=C(NS(=O)(=O)c1c(F)cccc1Cl)c1cc2cc(Cl)cc(Cl)n2n1` [Example I-67]: the “nematicidal activity on the basis of the percentage of gall formation” value is 90%.

As for `COc1ccc(F)c(S(=O)(=O)NC(=O)c2cc3cc(Cl)cc(Cl)n3n2)c1` [Example I-68], the “nematicidal activity on the basis of the percentage of gall formation” value was 100%. Take `COc1ccc(Br)c(S(=O)(=O)NC(=O)c2cc3cc(Cl)cc(Cl)n3n2)c1` [Example I-69]: the “nematicidal activity on the basis of the percentage of gall formation” value is recorded as 100%. Same read-out and setting: under `COc1ccc(Br)c(S(=O)(=O)NC(=O)c2cc3cc(C(F)(F)F)cc(Cl)n3n2)c1` [Example I-70] stands 100%; under `CSc1cccc(Cl)c1S(=O)(=O)NC(=O)c1cc2cc(C(F)(F)F)cc(Cl)n2n1` [Example I-71], 100%. For the compound `O=C(NS(=O)(=O)c1cc(C(F)(F)F)ccc1Cl)c1cc2cc(C(F)(F)F)cc(Cl)n2n1` [Example I-72], the “nematicidal activity on the basis of the percentage of gall formation” value worked out at 100%.

Turning to `O=C(NS(=O)(=O)c1cc(C(F)(F)F)ccc1Br)c1cc2cc(C(F)(F)F)ccn2n1` [Example I-73], the “nematicidal activity on the basis of the percentage of gall formation” value came out at 100%. As to `COc1ccc(F)c(S(=O)(=O)NC(=O)c2cc3cc(C(F)(F)F)cc(Cl)n3n2)c1` [Example I-74], the “nematicidal activity on the basis of the percentage of gall formation” value was found to be 100%. The same measure, in the same setting: under `CCc1ccc(C)c(S(=O)(=O)NC(=O)c2cc3cc(Cl)cc(Cl)n3n2)c1` [Example I-75] stands 100%; under `CSc1cccc(Cl)c1S(=O)(=O)NC(=O)c1cc2cc(Cl)cc(Cl)n2n1` [Example I-76], 90%; under `CCc1ccc(C)c(S(=O)(=O)NC(=O)c2cc3cc(C(F)(F)F)cc(Cl)n3n2)c1` [Example I-77], 100%. Consider `CCc1ccc(C)c(S(=O)(=O)NC(=O)c2cc3cc(C(F)(F)F)ccn3n2)c1` [Example I-78], for which the “nematicidal activity on the basis of the percentage of gall formation” value turned out to be 100%.

A further data set concerns Myzus persicae. Put plainly: Myzus persicae spray test. The data set is classed as in vivo. The following applies: application rate 500 g/ha; after 6 days; sprayed Chinese cabbage leaf disks; 100% = all aphids killed. The protocol:
Myzus Persicae—Spray Test
(§1) Solvent: 78.0 parts by weight acetone • 1.5 parts by weight dimethylformamide
(§2) Emulsifier: alkylarylpolyglycol ether
(§3) To produce a suitable preparation of active compound, 1 part by weight of active compound is mixed with the stated amount of solvents and is diluted with water, containing an emulsifier concentration of 1000 ppm, to the desired concentration. Further test concentrations are prepared by dilution with emulsifier containing water.
Chinese cabbage (Brassica pekinensis) leaf disks infected with all instars of the green peach aphid (Myzus persicae), are sprayed with a preparation of the active ingredient of the desired concentration.
After 6 days mortality in % is determined. 100% means all aphids have been killed and 0% means none of the aphids have been killed.
In turn, `CS(=O)(=O)NC(=O)c1cc2c(Cl)cc(C(F)(F)F)cn2n1` [Example I-15] yielded a mortality of 100%. `O=C(NS(=O)(=O)c1ccccc1Cl)c1cc2cc(Cl)cc(Cl)n2n1` [Example I-46]: the mortality was determined as 90%.

The next data set concerns Tetranychus urticae. Put plainly: Tetranychus urticae spray test OP-resistant. The data set is classed as in vivo. The following applies: application rate 500 g/ha, after 6 days, sprayed French bean leaf disks, 100% = all spider mites killed. The protocol: Tetranvechus urticae—spray test OP-resistant
as §1, §2, §3
French bean (Phaseolus vulgaris) leaf disks which are heavily infested with all stages of the two spotted spidermite (Tetranychus urticae), are sprayed with a preparation of the active ingredient of the desired concentration.
After 6 days mortality in % is determined. 100% means all spider mites have been killed and 0% means none of the spider mites have been killed.
Compound `CS(=O)(=O)NC(=O)c1cc2c(Cl)cc(C(F)(F)F)cn2n1` [Example I-15] came in with a mortality of 85%.

In another data set the test system is Meloidogyne incognita. Put plainly: Meloidogyne incognita test (soil drench, loamy sand, gall formation). The data set is classed as in vivo. The following applies: application rate 8 ppm, after 21 days, salad seedlings, 100% = no galls. The protocol:
Meloidogyne incognita—Test
Solvent: 7 parts by weight of dimethylformamide
Emulsifier: 2.5 parts by weight of alkylarylpolyglycolether
To produce a suitable preparation of active compound, 1 part by weight of active compound is mixed with the stated amount of solvent and emulsifier and is diluted with water to the desired concentration. In the calculation of the concentration the soil volume has to be included. […] Further test concentrations are prepared by dilution with water.
The compound solution is poured into pots filled with soil (loamy sand). A suspension containing eggs and larvae of the southern root-knot nematode (Meloidogyne incognita) is added, salad seeds are spread on the soil surface and covered with quartz sand. The salad seeds germinate and the seedlings grow. Galls develop on the roots.
After 21 days the nematicidal activity is determined on the basis of the percentage of gall formation. 100% means no galls were found; 0% means the number of galls found on the roots of the treated plants was equal to that in untreated control plants.
`O=C(NS(=O)(=O)c1cc(Cl)ccc1Cl)c1cc2cc(Cl)cc(Cl)n2n1` [Example I-47]: the “nematicidal activity on the basis of the percentage of gall formation” value is 80%.
